What was measured:
[1] = Osmotic pressure (osmolality) in an osmometer; assay type: physicochemical
Method: The osmotic pressure analysis measures the driving force of a solution to displace water molecules through a membrane from the medium in one side to the other. Considering the membrane is the esophageal epithelium, high osmolality means loss of water from the surrounding tissues to the GI tract. […] […] The osmolality of the powders produced through micro-encapsulation using spray congealing and spray drying were measured and compared to those of the pure contrast agents.

[2] = Particle size and morphology by PLM / SEM imaging; assay type: physicochemical; conditions: raw, non-encapsulated iopamidol particles

Row | mOsmol at 15 mg l/mL [1] [mOsmol] | mOsmol at 300 mg l/mL [1] [mOsmol] | Diameter of iopamidol particles [2] | Structure (SMILES)
1 | 36 | 413 |  | CC(=O)N(CC(O)CO)c1c(I)c(C(=O)NCC(O)CO)c(I)c(C(=O)NCC(O)CO)c1I (centres unmarked) [Iohexol (raw), 1-N,3-N-bis(2,3-dihydroxypropyl)-5-[N-(2,3-dihydroxypropyl)acetamido]-2,4,6-triiodobenzene-1,3-dicarboxamide]
2 | 30 | 572 | approximately 3 μm | C[C@H](O)C(=O)Nc1c(I)c(C(=O)NC(CO)CO)c(I)c(C(=O)NC(CO)CO)c1I [Iopamidol (raw), 1-N,3-N-bis(1,3-dihydroxypropan-2-yl)-5-[(2S)-2-hydroxypropanamido]-2,4,6-triiodobenzene-1,3-dicarboxamide]
